Patent US9289411B2, “Anti-HCV agent” (NATIONAL UNIVERSITY CORPORATION OKAYAMA UNIVERSITY, priority 2011, dated 2016)
pEC50: −log10 of the molar value.

Tests used:
[1] = system: HCV-RNA replication in ORL11 cells (HCV-O strain, Li23-derived); test: microbe, parasite or virus in culture; format: cell-based, HCV genotype 1b; conditions: for pEC50: Hepatitis C virus, 72 hours, renilla luciferase activity
Source text: Assay systems using OR6 cells (HCV-O strain), 1B-4R cells (HCV-1B-4 strain), and AH1R cells (HCV-AH1R strain) as HuH-7 cell-derived full-length HCV-RNA-replicating cells, and ORL8 cells (HCV-O strain), ORL11 cells (HCV-O strain), 1B-4RL cells (HCV-1B-4 strain), and KAH5RL cells (HCV-KAH5 strain) as Li23 cell-derived full-length HCV-RNA-replicating cells were used for the quantitative analysis of anti-HCV activity and evaluation of a cytotoxic effect in the present invention.
(§1) In the measurement of the renilla luciferase activity and the measurement by the WST-1 method, experiments were performed in three wells independent of each other, and their means and standard deviation were calculated.
N-89 was added so as to achieve concentrations of 500 nM, a 2-fold dilution series from 500 nM (250, 125, 63, 31, 16, and 8 nM), and 0. The luciferase activities were measured 72 hours after the culture.
N-251 was added so as to achieve concentrations of 1 μM, a 2-fold dilution series from 1 μM (500, 250, 125, 63, 31, and 16 nM), and 0. The luciferase activities were measured 72 hours after the culture.

[2] = system: HCV-RNA replication in 1B-4R cells (HCV-1B-4 strain, HuH-7-derived); test: microbe, parasite or virus in culture; format: cell-based, HCV genotype 1b; conditions: for pEC50: Hepatitis C virus, 72 hours, renilla luciferase activity
Source text: Assay systems using OR6 cells (HCV-O strain), 1B-4R cells (HCV-1B-4 strain), and AH1R cells (HCV-AH1R strain) as HuH-7 cell-derived full-length HCV-RNA-replicating cells, and ORL8 cells (HCV-O strain), ORL11 cells (HCV-O strain), 1B-4RL cells (HCV-1B-4 strain), and KAH5RL cells (HCV-KAH5 strain) as Li23 cell-derived full-length HCV-RNA-replicating cells were used for the quantitative analysis of anti-HCV activity and evaluation of a cytotoxic effect in the present invention. […] In addition, all the HCV strains belong to genotype 1b.
As necessary, an increase or decrease in expression level of an HCV protein (core protein) was examined by a Western blot method.
as §1
The luciferase activities were measured 72 hours after the culture.

[3] = system: HCV-RNA replication in KAH5RL cells (HCV-KAH5 strain, Li23-derived); test: microbe, parasite or virus in culture; format: cell-based, HCV genotype 1b; conditions: for pEC50: Hepatitis C virus, 72 hours, renilla luciferase activity
Experimental: as §1
N-89 was added so as to achieve concentrations of 10 μM, a 2-fold dilution series from 10 μM (5, 2.5, 1.3, 0.63, 0.31, and 0.16 μM), and 0. The luciferase activities were measured 72 hours after the culture.
N-251 was added so as to achieve concentrations of 5 μM, a 2-fold dilution series from 5 μM (2.5, 1.3, 0.63, 0.31, 0.16, and 0.08 μM), and 0. The luciferase activities were measured 72 hours after the culture.

[4] = system: HCV core protein in OR6 cells; test: Western blot analysis of HCV core protein expression in OR6 cells; format: cell-based, HCV genotype 1b; conditions: 72 hours, N-89 0.31-20 μM, N-251 0.16-10 μM
Experimental: N-89 and N-251 were diluted with DMSO. After 72 hours, sampling was performed with 100 μL of 2×SDS buffer. 10 μL of a sample were applied to SDS-PAGE electrophoresis and subjected to Western blot analysis using an anti-HCV core antibody and an anti-β-actin antibody according to a conventional method. For the detection of β-actin, a sample diluted 10-fold with 2×SDS buffer in advance was used because the expression amount of β-actin was high.

[5] = system: HCV core protein in HCV-O/RLGE cells; test: Western blot analysis of HCV core protein in HCV-O/RLGE cells; format: cell-based; conditions: 72 hours, concentration region in which β-actin did not reduce
Experimental: HCV-O/RLGE cells (Ikeda et al., Liver Int 31:871-880, 2011) were plated onto a 6-well plate (5×10^4 cells in 3 mL of medium for HuH-7 cell line per well) and cultured. […] 72 hours after the culture, the cells were lysed with 100 μL of 2×SDS buffer to prepare a sample for Western blot analysis. The Western blot analysis using an antibody against an HCV core protein (CP11; Institute of Immunology, Tokyo) was performed according to a conventional method. β-Actin was detected with an anti-β-actin antibody (AC-15; Sigma-Aldrich) in a sample diluted 10-fold with 2×SDS buffer.

renilla luciferase = test: Influence on renilla luciferase activity in lysate of OR6 cells; format: biochemical; conditions: OR6 cell lysate, concentrations of up to 20 μM
Experimental: Thus, N-89 or N-251 was added (5 μL) to a lysate (10 μL) of the ORL8 cells (1×10^5 cells, medium for Li23 cell line) so as to achieve final concentrations of 0, 5, 10, and 20 μM, and 50 μL of a substrate were further added thereto. Then, the luciferase activity was measured.
Also in OR6 cells (medium for HuH-7 cell line), the renilla luciferase activity was measured by the same technique as in Example 6.
An actual luciferase activity value (RL activity value) at 100% on the ordinate axis was 1.1×10^6 in both of N-89 and N-251.

[6] = system: HCV-RNA replication in ORL8 cells; test: Effect of antioxidant vitamin E on anti-HCV activity in ORL8 cells (luciferase activity); format: cell-based, HCV genotype 1b; conditions: for luciferase activity, compound in combination with vitamin E: compound 0.5 μM + vitamin E 10 μM; for luciferase activity, compound in combination with vitamin E / luciferase activity (HCV activity), compound alone: 72 hours; for luciferase activity (HCV activity), compound alone: compound 0.5 μM alone; for canceling of the anti-HCV activity by vitamin E: vitamin E 10 μM
Experimental: The effect of addition of vitamin E on the anti-HCV activity of N-89 was examined using ORL8 cells. An experimental scale and schedule are the same as those in Example 1.
N-89 and vitamin E were simultaneously added so that the concentrations of N-89 and vitamin E were set to 0.5 μM and 10 μM, respectively. The luciferase activity was measured 72 hours after the culture.
The effect of addition of vitamin E on the anti-HCV activity of N-251 was examined using ORL8 cells. An experimental scale and schedule are the same as those in Example 1.
N-251 and vitamin E were simultaneously added so that the concentrations of N-251 and vitamin E were set to 0.5 μM and 10 μM, respectively. The luciferase activity was measured 72 hours after the culture.
The effect of addition of vitamin E on the anti-HCV activity of artemisinin was examined using ORL8 cells. An experimental scale and schedule are the same as those in Example 1.
Artemisinin and vitamin E were simultaneously added so that the concentrations of artemisinin and vitamin E were set to 100 μM and 10 μM, respectively. The luciferase activity was measured 72 hours after the culture.

[7] = system: HCV-RNA replication in ORL8 cells; test: Combination effect with existing anti-HCV agents in ORL8 cells (luciferase activity vs expected additive curve); format: cell-based, HCV genotype 1b; conditions: for effect in combination with CsA: CsA 0.2, 0.3, 0.4 μM; for effect in combination with CsA / effect in combination with FLV / effect in combination with RBV: compound 0.1, 0.2, 0.4 μM; for effect in combination with FLV: FLV 0.3, 1.0, 3.0 μM; for effect in combination with RBV: RBV 12.5, 25, 50 μM
Experimental: The effect of N-89 in combination with RBV was examined using ORL8 cells.
The drugs RBV and N-89 were added so that the concentrations of RBV were set to 0, 12.5, 25, and 50 μM and the concentrations of N-89 were set to 0, 0.1, 0.2, and 0.4 μM at each concentration of RBV. The luciferase activity was measured 72 hours after the culture.
The upper left panel of FIG. 19 and the upper right panel of FIG. 19 show the logarithmic and linear plots expressed by % of the measurement results, respectively.
The effect of N-251 in combination with RBV was examined using ORL8 cells.
The effect of N-89 in combination with IFN-α and RBV was examined using ORL8 cells.
The drugs N-89, IFN-α, and RBV were added so that the concentrations of the two drugs IFN-α and RBV were fixed as follows: both of IFN-α and RBV at 0; IFN-α at 1 IU/mL and RBV at 6.25 μM; IFN-α at 4 IU/mL and RBV at 12.5 μM; and IFN-α at 16 IU/mL and RBV at 25 μM, and the concentrations of N-89 were set to 0, 0.1, 0.2, and 0.4 μM in the respective combinations of IFN-α and RBV. The luciferase activity was measured 72 hours after the culture.
The luciferase activity was measured 72 hours after the culture.
The effect of N-89 in combination with FLV was examined using ORL8 cells.
The drugs FLV and N-89 were added so that the concentrations of FLV were set to 0.3, 1.0, and 3.0 μM and the concentrations of N-89 were set to 0, 0.1, 0.2, and 0.4 μM at each concentration of FLV. The luciferase activity was measured 72 hours after the culture.
The effect of N-251 in combination with FLV was examined using ORL8 cells.
The drugs FLV and N-251 were added so that the concentrations of FLV were set to 0.3, 1.0, and 3.0 μM and the concentrations of N-251 were set to 0, 0.1, 0.2, and 0.4 μM at each concentration of FLV. The luciferase activity was measured 72 hours after the culture.

Row | Structure (SMILES) | SI (CC50/EC50) [1] | pEC50 [1] | SI (CC50/EC50) [2] | pEC50 [2] | SI (CC50/EC50) [3] | pEC50 [3] | level of the HCV core protein (Western blot) [4] | amount of HCV core protein (Western blot) [5] | inhibition on the renilla luciferase activity (renilla luciferase) | luciferase activity, compound in combination with vitamin E [6] | luciferase activity (HCV activity), compound alone [6] | canceling of the anti-HCV activity by vitamin E [6] | effect in combination with CsA ([7]; 72 hours) | effect in combination with FLV ([7]; 72 hours) | gaps between actually measured values and values expected as an additive effect ([7]; IFN-α 1 IU/mL and RBV 6.25 μM, N-89 0.1-0.4 μM) | effect in combination with IFN-α and RBV ([7]; IFN-α 4 IU/mL + RBV 12.5 μM and IFN-α 16 IU/mL + RBV 25 μM, N-89 0.1-0.4 μM, 72 hours) | effect in combination with RBV ([7]; 72 hours)
1 | C1CCCCCC2(CCCCC1)OOCCCOO2 [N-89, 1,2,6,7-tetraoxaspiro[7,11]nonadecane] | 12 | 7.35 | 22 | 6.38 | 13 | 6.72 | reduced depending on the concentrations | clearly reduced | did not show any inhibition | 245% | 27% | completely canceled | synergistic effect | synergistic effect | little gaps | synergistic effect | synergistic effect
2 | OCCCCCCC1COOC2(CCCCCCCCCCC2)OOC1 [N-251, 6-(1,2,6,7-tetraoxaspiro[7,11]nonadec-4-yl)] | 19 | 7.23 | 3.9 | 6.01 | 11 | 6.54 | reduced depending on the concentrations | clearly reduced | did not show any inhibition | 215% | 33% | completely canceled | synergistic effect | synergistic effect | – | – | synergistic effect
